The values below come from paper PMC9495235, “New MraYAA Inhibitors with an Aminoribosyl Uridine Structure and an Oxadiazole” (Antibiotics, 2022).

One may read the IC50 as the concentration at which inhibition is half-maximal.

Series [1] has as its target T1, MraY transferase purified from Aquifex aeolicus (MraYAA) (Aquifex aeolicus, UniProt O66465).
T1 construct: His; made in house
The series is described as follows: Inhibition of MraYAA transferase activity. The note with it: for IC50: read-out: IC50 against MraYAA. In kind it is biochemical. Here is the method:
The inhibitory activity of the synthesized compounds 12a–12j was evaluated on MraY transferase purified from Aquifex aeolicus (MraYAA) prepared as previously described by Chung et al.. Their activity (Table 4) was compared to the inhibitory activity of the N-triazole-containing inhibitor 13 (Figure 3) that we previously synthesized (Table 4). Commercially available tunicamycin from Streptomyces sp. was used as a positive control in the test.
The inhibitory activity of the synthesized compounds 1–5 was determined as described in reference except that compounds were tested at a final concentration of 10% DMSO. The compounds were evaluated on His-tagged MraY transferase purified from Aquifex aeolicus (MraYAA) prepared as previously described by Chung et al.. The assays were performed as previously described by Stachyra et al..

Series [2] has as its system Citrobacter freundii ATCC 8090. Briefly: Antibacterial activity (CMI). Format: cell-based. As to conditions: Gram -. Here is the method:
(§1) The antibacterial activity of MraY inhibitors 12a–12h was also evaluated against several bacterial strains. Gram-negative (E. coli ATCC 8730, C. freundii ATCC8090 and P. aeruginosa ATCC 27853) and Gram-positive pathogenic bacterial strains (S. aureus ATCC 25923 and E. faecium ATCC 19434), including a methicillin-resistant strain (S. aureus MRSA ATCC 43300), were selected as a representative of pathogen bacterial diversity. Piperacillin and vancomycin were used as positive control in the tests.
(§2) Antibacterial activity was determined as previously described, but molecules were solubilized in 100% DMSO (cell culture grade) at 1 mg/mL concentration and 10-fold diluted in MHB just before utilization. The MHB-diluted solutions were then serially diluted in 5% DMSO-MHB, at final concentrations ranging from […] for compounds and 6.25 to 5% for DMSO.
(§3) Table S1. Antibacterial activity of compounds 12a-12i, and reference compounds.
(§4) final concentration tested

Series [3] has as its system Escherichia coli ATCC 8730. Briefly: Antibacterial activity (CMI). Format: cell-based. The note with it: Gram -. The procedure: as §1, §2, §3, §4
Series [4] has as its system Enterococcus faecium ATCC 19434. Briefly: Antibacterial activity (CMI). In kind it is cell-based. As to conditions: Gram +. The procedure: as §1, §2, §3, §4
Series [5] has as its system Pseudomonas aeruginosa ATCC 27853. The series is described as follows: Antibacterial activity (CMI). Format: cell-based. As to conditions: Gram -. Here is the method: as §1, §2, §3, §4
Series [6] deals with Staphylococcus aureus MRSA ATCC 43300. The series is described as follows: Antibacterial activity (CMI). In kind it is cell-based. As to conditions: Gram +. The procedure: as §1, §2, §3, §4
The test system of series [7] is Staphylococcus aureus ATCC 25923. Briefly: Antibacterial activity (CMI). Format: cell-based. The note with it: Gram +. Here is the method:
as §1, §2, §3, §4

Series [8] can be described thus: Solubility in 5%DMSO-water (culture media). In kind it is physicochemical. As to conditions: at the highest final concentration tested. The procedure:
as §2, §3, §4

[9] abbreviates: final concentration of 10% DMSO, triplicate, repeated at least twice (tunicamycin tested twice).

Entries after “also recorded” stand apart in the source; their conditions may differ.

T1 sequence (O66465 whole entry): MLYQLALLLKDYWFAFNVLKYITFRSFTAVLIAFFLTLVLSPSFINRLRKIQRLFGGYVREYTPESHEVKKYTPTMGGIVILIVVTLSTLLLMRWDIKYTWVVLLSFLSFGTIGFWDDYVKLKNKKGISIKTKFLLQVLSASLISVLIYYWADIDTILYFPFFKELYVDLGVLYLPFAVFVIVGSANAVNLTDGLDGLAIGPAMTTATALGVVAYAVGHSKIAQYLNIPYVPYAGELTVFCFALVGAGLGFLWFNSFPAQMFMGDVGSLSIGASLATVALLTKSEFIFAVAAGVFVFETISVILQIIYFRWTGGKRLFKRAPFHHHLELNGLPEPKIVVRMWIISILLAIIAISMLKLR

`CCCCCCCCCC(C(=O)OCC)c1nc(C[C@H](O[C@@H]2O[C@H](CN)[C@@H](O)[C@H]2O)[C@H]2O[C@@H](n3ccc(=O)[nH]c3=O)[C@H](O)[C@@H]2O)no1` (mixture of isomers) [Compound 12h]: the IC50 in series [1] (setting [9]) is 27.5 ± 0.7 µM. For the same compound, the CMI in series [2], in series [3], in series [4], in series [5], in series [6] and in series [7] was more than 50 µg/mL throughout.
In the case of `CCCCCCCCCCc1nc(C[C@H](O[C@@H]2O[C@H](CN)[C@@H](O)[C@H]2O)[C@H]2O[C@@H](n3ccc(=O)[nH]c3=O)[C@H](O)[C@@H]2O)no1.O=C(O)C(F)(F)F` [Compound 12a], the IC50 in series [1] (setting [9]) is 0.8 ± 0.1 µM. For the same compound, the CMI in series [2], in series [3], in series [4], in series [5], in series [6] and in series [7] was more than 50 µg/mL throughout.
Take `CCCCCCCCCCCCCCCc1nc(C[C@H](O[C@@H]2O[C@H](CN)[C@@H](O)[C@H]2O)[C@H]2O[C@@H](n3ccc(=O)[nH]c3=O)[C@H](O)[C@@H]2O)no1.O=C(O)C(F)(F)F` [Compound 12b]: the IC50 in series [1] (setting [9]) came to 9.3 ± 0.2 µM. Further, the CMI in series [2], in series [3], in series [4], in series [5], in series [6] and in series [7] was more than 50 µg/mL in each case.
In the case of `CCCCCCCCCCCCCCCCCCc1nc(C[C@H](O[C@@H]2O[C@H](CN)[C@@H](O)[C@H]2O)[C@H]2O[C@@H](n3ccc(=O)[nH]c3=O)[C@H](O)[C@@H]2O)no1.O=C(O)C(F)(F)F` [Compound 12c], the concentration for half-maximal inhibition (IC50) in series [1] (setting [9]) stood at 15.8 ± 1 µM. In addition, in series [8], the “solubility in 5%DMSO-water (culture media)” value (shortened to “solubility in 5%DMSO-water”) is listed as “insoluble”. Further, the CMI is more than 50 µg/mL in series [2]; more than 50 µg/mL in series [3]; 50 µg/mL in series [4]; more than 50 µg/mL in series [5]; 50 µg/mL in series [6]; 50 µg/mL in series [7].
For the compound `CCCCCCCC/C=C\CCCCCCCc1nc(C[C@H](O[C@@H]2O[C@H](CN)[C@@H](O)[C@H]2O)[C@H]2O[C@@H](n3ccc(=O)[nH]c3=O)[C@H](O)[C@@H]2O)no1.O=C(O)C(F)(F)F` [Compound 12d], the concentration for half-maximal inhibition (IC50) in series [1] (setting [9]) was determined as 18.9 ± 0.9 µM. For the same compound, the “solubility in 5%DMSO-water” value in series [8] is listed as “insoluble”. Also, the CMI in series [2], in series [3], in series [4], in series [5], in series [6] and in series [7] was more than 50 µg/mL in each case.
For the compound `NC[C@H]1O[C@@H](O[C@@H](Cc2noc(-c3ccc(Oc4ccccc4)cc3)n2)[C@H]2O[C@@H](n3ccc(=O)[nH]c3=O)[C@H](O)[C@@H]2O)[C@H](O)[C@@H]1O.O=C(O)C(F)(F)F` [Compound 12e], the IC50 in series [1] (setting [9]) worked out at 3.2 ± 0.2 µM. For the same compound, the CMI in series [2], in series [3], in series [4], in series [5], in series [6] and in series [7] was more than 50 µg/mL each time.
Take `CCCCCCCC/C=C/CCCCCCCc1nc(C[C@H](O[C@@H]2O[C@H](CN)[C@@H](O)[C@H]2O)[C@H]2O[C@@H](n3ccc(=O)[nH]c3=O)[C@H](O)[C@@H]2O)no1.O=C(O)C(F)(F)F` [Compound 12f]: in series [1] (setting [9]), the IC50 was 17.3 ± 0.3 µM. In series [8], the “solubility in 5%DMSO-water” value was “insoluble”. Moreover, the CMI in series [2] was more than 50 µg/mL; in series [3], more than 50 µg/mL; in series [4] it was 50 µg/mL; in series [5] it was more than 50 µg/mL; in series [6], 50 µg/mL; in series [7] it was 50 µg/mL.
`NC[C@H]1O[C@@H](O[C@@H](Cc2noc(CCCCCCCCCc3ccccc3)n2)[C@H]2O[C@@H](n3ccc(=O)[nH]c3=O)[C@H](O)[C@@H]2O)[C@H](O)[C@@H]1O.O=C(O)C(F)(F)F` [Compound 12g]: in series [1] (setting [9]), the IC50 was 5.8 ± 0.1 µM. The CMI in series [2], in series [3], in series [4], in series [5], in series [6] and in series [7] was more than 50 µg/mL each time.
On to `CCCCCCCCCCC(CCCCCCCCCC)c1nc(C[C@H](O[C@@H]2O[C@H](CN)[C@@H](O)[C@H]2O)[C@H]2O[C@@H](n3ccc(=O)[nH]c3=O)[C@H](O)[C@@H]2O)no1.O=C(O)C(F)(F)F` [Compound 12i], for which the “IC50 against MraYAA” value in series [1] (setting [9]) is given as “no activity; also recorded: N.I. ^e”. Further, the “solubility in 5%DMSO-water” value in series [8] is reported as “insoluble”. In addition, the CMI in series [2], in series [3], in series [4], in series [5], in series [6] and in series [7] was more than 50 µg/mL in each case.
On to `CCCCCCCCCC(C(=O)O)c1nc(C[C@H](O[C@@H]2O[C@H](CN)[C@@H](O)[C@H]2O)[C@H]2O[C@@H](n3ccc(=O)[nH]c3=O)[C@H](O)[C@@H]2O)no1` (some centres unmarked) [Compound 12j], for which the IC50 in series [1] (setting [9]) came to 2.9 ± 0.6 µM. Further, the “activity relative to the parent ester” value in series [1] (relative to parent ethyl ester (12h), MraYAA) is on record as “almost tenfold more active”.
In the case of `CCCCCCCCCCc1cn(C[C@H](O[C@@H]2O[C@H](CN)[C@@H](O)[C@H]2O)[C@H]2O[C@@H](n3ccc(=O)[nH]c3=O)[C@H](O)[C@@H]2O)nn1` [Compound 13, reference compound], the concentration for half-maximal inhibition (IC50) in series [1] (setting [9]) is 1.1 µM.
With `CCN1CCN(C(=O)N[C@@H](C(=O)N[C@@H]2C(=O)N3[C@@H]2SC(C)(C)[C@@H]3C(=O)O)c2ccccc2)C(=O)C1=O` [Piperacillin, reference compound], the CMI in series [2] was 4 µg/mL; in series [3] it was 4 µg/mL; in series [4] it was 4 µg/mL; in series [5] it was 8 µg/mL; in series [6], more than 128 µg/mL; in series [7], 4 µg/mL.
In the case of `CN[C@H](CC(C)C)C(=O)N[C@H]1C(=O)N[C@@H](CC(N)=O)C(=O)N[C@H]2C(=O)N[C@H]3C(=O)N[C@H](C(=O)N[C@H](C(=O)O)c4cc(O)cc(O)c4-c4cc3ccc4O)[C@H](O)c3ccc(c(Cl)c3)Oc3cc2cc(c3O[C@@H]2O[C@H](CO)[C@@H](O)[C@H](O)[C@H]2O[C@H]2C[C@](C)(N)[C@H](O)[C@H](C)O2)Oc2ccc(cc2Cl)[C@H]1O` [Vancomycin, reference compound], the CMI is 0.5 µg/mL in series [4], 1 µg/mL in series [6] and 1 µg/mL in series [7].
Consider Tunicamycin [reference compound], for which the IC50 in series [1] (setting [9]) stood at 0.026 µM.
